Our source for the IC50 values is patent US20160046618A1, “Cyclopropyl Fused Thiazin-2-Amine Compounds as Beta-Secretase Inhibitors and Methods of Use” (AMGEN INC., priority 2014, published 2016).

One experiment has as its target Recombinant Cat D (Homo sapiens (Human), UniProt P07339). Description: In vitro enzymatic Cathepsin D (Cat D) FRET assay. The experiment is classed as biochemical. Conditions: read-out: IC50 IP (μM) CatD. A digest of the protocol: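 Fluorescence at 500 nm excitation and 580 nm emission reports cleavage of a quenched fluorophore–quencher peptide (20 nM) by CHO-expressed Cat D. Reactions ran one hour in 0.05 M citrate pH 3.5, 5 mM CHAPS, 10% DMSO final before a Tris stop raised pH to neutrality.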

The next experiment concerns the target human recombinant BACE2 (Homo sapiens (Human), UniProt Q9Y5Z0). Description: In vitro enzymatic BACE2 FRET assay. The experiment is classed as biochemical. Conditions: read-out: IC50 IP (μM) BACE2 enzyme. The procedure, abridged: (§1)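 FRET cleavage assay using Ni-NTA-purified recombinant protease and 50 nM quenched peptide substrate, 1 h. Stopped by neutralising with Tris; fluorescence at 488/590 nm.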

The next experiment deals with human recombinant BACE1 (Homo sapiens (Human), UniProt P56817). Put plainly: In vitro enzymatic BACE1 FRET assay. The experiment is classed as biochemical. Particulars: read-out: IC50 IP (μM) BACE1 enzyme. A digest of the protocol: as §1
Sequence of human recombinant BACE1 (P56817 46-501): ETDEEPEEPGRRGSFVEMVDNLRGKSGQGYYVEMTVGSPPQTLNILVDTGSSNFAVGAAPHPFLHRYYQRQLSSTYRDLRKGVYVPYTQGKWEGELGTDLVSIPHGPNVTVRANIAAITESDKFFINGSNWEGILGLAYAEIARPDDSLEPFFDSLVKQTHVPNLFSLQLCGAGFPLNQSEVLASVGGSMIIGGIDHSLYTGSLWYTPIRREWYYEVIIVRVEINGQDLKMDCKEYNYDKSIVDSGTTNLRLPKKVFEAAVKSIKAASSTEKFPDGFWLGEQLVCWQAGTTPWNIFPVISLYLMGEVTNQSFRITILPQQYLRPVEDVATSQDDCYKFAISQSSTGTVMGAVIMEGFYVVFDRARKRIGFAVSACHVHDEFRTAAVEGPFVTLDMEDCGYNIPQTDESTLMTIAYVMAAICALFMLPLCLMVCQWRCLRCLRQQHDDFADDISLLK
Experiment [1] concerns Aβ40 in conditioned medium of cells stably expressing Amyloid Precursor Protein (APP). Description: In vitro BACE-1 cell-based assay (Aβ40 sandwich ELISA). Particulars: read-out: IC50 IP (μM) BACE1 cell. The procedure, abridged: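 APP-stable cells, pre-cultured 24 h at 37° C in DMEM/10% FBS, were treated 24 h with compound in a 10-point series starting at 100 μM or 10 μM (0.1% DMSO final). Secreted Aβ40 in conditioned medium was measured by pAb40/biotin-6E10 sandwich ELISA with Europium time-resolved fluorescence; IC50 from percent inhibition versus concentration.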

Sequence of human recombinant BACE2 (Q9Y5Z0 63-518): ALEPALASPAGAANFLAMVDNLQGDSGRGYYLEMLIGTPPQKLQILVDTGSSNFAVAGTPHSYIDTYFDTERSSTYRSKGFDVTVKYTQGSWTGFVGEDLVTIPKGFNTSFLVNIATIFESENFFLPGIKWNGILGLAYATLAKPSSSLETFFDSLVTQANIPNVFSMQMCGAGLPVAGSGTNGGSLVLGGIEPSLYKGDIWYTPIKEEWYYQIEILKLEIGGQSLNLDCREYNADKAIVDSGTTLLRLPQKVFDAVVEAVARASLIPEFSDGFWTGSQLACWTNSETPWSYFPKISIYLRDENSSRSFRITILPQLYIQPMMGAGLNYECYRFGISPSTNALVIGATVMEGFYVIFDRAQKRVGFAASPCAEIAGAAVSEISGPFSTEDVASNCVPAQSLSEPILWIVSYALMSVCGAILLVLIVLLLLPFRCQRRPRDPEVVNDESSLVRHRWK
Sequence of Recombinant Cat D (P07339 65-412): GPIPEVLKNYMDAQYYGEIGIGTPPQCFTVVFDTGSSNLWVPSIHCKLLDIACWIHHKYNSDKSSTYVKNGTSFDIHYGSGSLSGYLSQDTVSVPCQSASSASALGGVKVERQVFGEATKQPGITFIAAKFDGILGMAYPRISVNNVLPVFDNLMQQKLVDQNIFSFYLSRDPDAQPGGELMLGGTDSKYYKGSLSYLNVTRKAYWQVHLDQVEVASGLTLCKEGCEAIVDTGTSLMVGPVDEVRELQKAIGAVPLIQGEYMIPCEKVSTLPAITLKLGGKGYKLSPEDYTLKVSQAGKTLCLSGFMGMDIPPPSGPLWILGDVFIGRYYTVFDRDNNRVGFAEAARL

What is called IC50 is the concentration needed to halve the response being measured. Consider `COC[C@]12C[C@H]1[C@@](C)(c1cc(NC(=O)c3cnc(OCC(F)(F)C(F)F)cn3)cc(F)c1F)N=C(N)S2` [Example 734, N-(3-((1S,5S,6S)-3-amino-1-(methoxymethyl)-5-methyl-2-thia-4-azabicyclo[4.1.0]hept-3-en-5-yl)-4,5-difluorophenyl)-5-(2,2,3,3-tetrafluoropropoxy)-2-pyrazinecarboxamide], for which the 50% inhibitory concentration (IC50) was determined as 2110 µM at Recombinant Cat D, 0.188 µM at human recombinant BACE2, 0.00173 µM on human recombinant BACE1 and 0.017 µM in experiment [1].
Regarding `COC[C@]12C[C@H]1[C@@](C)(c1cc(Nc3nccc4cc(OCc5ncc(Cl)s5)cnc34)cc(F)c1F)N=C(N)S2` [Example 735, N-(3-((1S,5S,6S)-3-amino-1-(methoxymethyl)-5-methyl-2-thia-4-azabicyclo[4.1.0]hept-3-en-5-yl)-4,5-difluorophenyl)-3-((5-chloro-1,3-thiazol-2-yl)methoxy)-1,7-naphthyridin-8-amine], the IC50 at Recombinant Cat D is 1650 µM; at human recombinant BACE2, 0.978 µM; on human recombinant BACE1 it was 0.0412 µM; in experiment [1], 1.76 µM.
The corresponding values for `COC[C@]12C[C@H]1[C@@](C)(c1cc(Nc3nccc4cc(OCc5nc(Br)cs5)cnc34)cc(F)c1F)N=C(N)S2` [Example 736, N-(3-((1S,5S,6S)-3-amino-1-(methoxymethyl)-5-methyl-2-thia-4-azabicyclo[4.1.0]hept-3-en-5-yl)-4,5-difluorophenyl)-3-((4-bromo-1,3-thiazol-2-yl)methoxy)-1,7-naphthyridin-8-amine] are 151 µM, 0.765 µM, 0.0317 µM and 1.07 µM.
As for `COC[C@]12C[C@H]1[C@@](C)(c1cc(Nc3nccc4cc(OCc5nccs5)cnc34)cc(F)c1F)N=C(N)S2` [Example 737, N-(3-((1S,5S,6S)-3-amino-1-(methoxymethyl)-5-methyl-2-thia-4-azabicyclo[4.1.0]hept-3-en-5-yl)-4,5-difluorophenyl)-3-(1,3-thiazol-2-ylmethoxy)-1,7-naphthyridin-8-amine], the IC50 amounted to 1500 µM at Recombinant Cat D, 0.693 µM on human recombinant BACE2, 0.0325 µM at human recombinant BACE1 and 0.274 µM in experiment [1].
The corresponding values for `COC[C@]12C[C@H]1[C@@](C)(c1cc(NC(=O)c3cnc(OCC(C)(F)F)cn3)cc(F)c1F)N=C(N)S2` [Example 739, N-(3-((1S,5S,6S)-3-amino-1-(methoxymethyl)-5-methyl-2-thia-4-azabicyclo[4.1.0]hept-3-en-5-yl)-4,5-difluorophenyl)-5-(2,2-difluoropropoxy)-2-pyrazinecarboxamide] are 1460 µM, 0.158 µM, 0.00421 µM and 0.0169 µM.
As to `COC[C@]12C[C@H]1[C@@](C)(c1cc(NC(=O)c3cnc(OCCCF)cn3)cc(F)c1F)N=C(N)S2` [Example 740, N-(3-((1S,5S,6S)-3-amino-1-(methoxymethyl)-5-methyl-2-thia-4-azabicyclo[4.1.0]hept-3-en-5-yl)-4,5-difluorophenyl)-5-(3-fluoropropoxy)-2-pyrazinecarboxamide], the IC50 on Recombinant Cat D stood at 927 µM; at human recombinant BACE2, 0.209 µM; on human recombinant BACE1, 0.0055 µM; in experiment [1], 0.0194 µM.
For the compound `COC[C@]12C[C@H]1[C@@](C)(c1cc(Nc3nccc4cc(OCC#CC(F)(F)F)cnc34)cc(F)c1F)N=C(N)S2` [Example 741, N-(3-((1S,5S,6S)-3-amino-1-(methoxymethyl)-5-methyl-2-thia-4-azabicyclo[4.1.0]hept-3-en-5-yl)-4,5-difluorophenyl)-3-((4,4,4-trifluoro-2-butyn-1-yl)oxy)-1,7-naphthyridin-8-amine], the IC50 on Recombinant Cat D stood at 94.4 µM; at human recombinant BACE2, 0.658 µM; at human recombinant BACE1, 0.0269 µM; in experiment [1], 1.14 µM.
